The text below walks through data of patent publication US8623862B2, “Derivatives of N-[(1H-pyrazol-1-yl)aryl]-1H-indole or 1H-indazole-3-carboxamide, preparation thereof and applications thereof in therapeutics” (Sanofi, priority 2011, dated 2014).

The subject of the assay is platelet aggregation. Nature of the assay: Inhibition of platelet aggregation in vitro (rat blood).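 Note: aggregation induced by ADP added as 4 µL of a 250 µM solution.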 In kind it is cell-based. To be noted: rat blood, in vitro; read-out: Inhibition of platelet aggregation in vitro (rat blood). The procedure:
The measurements of platelet aggregation are performed at 37° C. in glass tubes (Chrono-Log—Kordia aggregometer).
Inhibition of Platelet Aggregation In Vitro (Rat Blood)
The blood is taken from male rats of the Sprague-Dawley strain, weighing 250-300 g.
The platelet-rich plasma (PRP) is obtained by centrifugation of the blood at 300 g for 5 minutes, and the measurements of platelet aggregation are performed as described above.
The results are calculated using the area under the curve of absorbance measured for 6 minutes, and expressed as percentage inhibition.
Take `CCCC(=O)c1cnn(-c2ccc(NC(=O)c3cn(CC(=O)N4CCN(CC(=O)N(C)C)CC4)c4ccc(Cl)cc34)cc2)c1C` [Compound 154]: the IC50 amounted to 150 nM.

`CCCC(=O)c1cnn(-c2ccc(NC(=O)c3cn(CC(=O)N4CCN(CC(=O)OCC)CC4)c4ccc(Cl)cc34)cc2)c1C` [Compound 155]: the IC50 was 260 nM.

Consider `CCCC(=O)c1cnn(-c2ccc(NC(=O)c3cn(CC(=O)N4CCN(CCC)CC4)c4ccc(Cl)cc34)cc2)c1C` [Compound 156], for which the IC50 turned out to be 300 nM.

For `CCCC(=O)c1cnn(-c2ccc(NC(=O)c3cn(CC(=O)N4CCN(C)CC4)c4cc(F)c(Cl)cc34)cc2)c1C` [Compound 157], the IC50 came out at 180 nM.

As to `CCCC(=O)c1cnn(-c2ccc(NC(=O)c3cn(CC(=O)N4CCN(CCOC)CC4)c4cc(F)c(Cl)cc34)cc2)c1C` [Compound 158], the IC50 was determined as 340 nM.

For the compound `CCCC(=O)c1cnn(-c2ccc(NC(=O)c3cn(CC(=O)N4CC(C)NC(C)C4)c4ccc(Cl)cc34)cc2)c1C` (centres unmarked) [Compound 159], the IC50 came to 410 nM.

Take `CCCC(=O)c1cnn(-c2ccc(NC(=O)c3cn(CC(=O)N4CCN(C)CC4)c4ccc(C#N)cc34)cc2)c1C` [Compound 160]: the IC50 was determined as 1380 nM.

For `CCCC(=O)c1cnn(-c2ccc(NC(=O)c3cn(CC(=O)N4CCN(CCOCC)CC4)c4ccc(Cl)cc34)cc2)c1C` [Compound 161], the IC50 worked out at 370 nM.

With `CCCC(=O)c1cnn(-c2ccc(NC(=O)c3cn(CC(=O)N4CCN(CC(=O)NC)CC4)c4ccc(Cl)cc34)cc2)c1C` [Compound 163], the IC50 worked out at 290 nM.

In the case of `CCCC(=O)c1cnn(-c2ccc(NC(=O)c3cn(CC(=O)N4CCN(Cc5cccs5)CC4)c4ccc(C)cc34)cc2)c1C` [Compound 164], the IC50 was 1010 nM.

On to `CCCC(=O)c1cnn(-c2ccc(NC(=O)c3cn(CC(=O)N4CCN(Cc5ccc(F)cc5)CC4)c4ccc(Cl)cc34)cc2)c1C` [Compound 165], for which the IC50 was 310 nM.

Take `CCCC(=O)c1cnn(-c2ccc(NC(=O)c3cn(CC(=O)N4CCN(Cc5ccc(Cl)cc5)CC4)c4ccc(Cl)cc34)cc2)c1C` [Compound 167]: the IC50 was found to be 470 nM.

In the case of `CCCC(=O)c1cnn(-c2ccc(NC(=O)c3cn(CC(=O)N4CCN(Cc5ccccc5OC)CC4)c4ccc(Cl)cc34)cc2)c1C` [Compound 168], the IC50 is 370 nM.

As to `CCCC(=O)c1cnn(-c2ccc(NC(=O)c3cn(CC(=O)N(C)C4CCS(=O)(=O)C4)c4ccc(Cl)cc34)cc2)c1C` (centres unmarked) [Compound 169], the IC50 amounted to 400 nM.

Take `CCCC(=O)c1cnn(-c2ccc(NC(=O)c3cn(CC(=O)N4CC(O)CC4C(=O)NC4CCC4)c4ccc(Cl)cc34)cc2)c1C` (centres unmarked) [Compound 171]: the IC50 was 570 nM.

Consider `CCCC(=O)c1cnn(-c2ccc(NC(=O)c3cn(CC(=O)N4CCn5ccnc5C4)c4ccc(Cl)cc34)cc2)c1C` [Compound 172], for which the IC50 stood at 330 nM.

For `CCCC(=O)c1cnn(-c2ccc(NC(=O)c3cn(CC(=O)N4CCc5[nH]ncc5C4)c4ccc(Cl)cc34)cc2)c1C` [Compound 173], the IC50 was 170 nM.

For `CCCC(=O)c1cnn(-c2ccc(NC(=O)c3cn(CC(=O)N4Cc5cnn(C)c5C4)c4ccc(Cl)cc34)cc2)c1C` [Compound 174], the IC50 was found to be 490 nM.

Consider `CCCC(=O)c1cnn(-c2ccc(NC(=O)c3cn(CC(=O)N4Cc5c[nH]nc5C4)c4ccc(Cl)cc34)cc2)c1C` [Compound 175], for which the IC50 turned out to be 290 nM.

Take `CCCC(=O)c1cnn(-c2ccc(NC(=O)c3cn(CC(=O)N4CC(O)C4)c4ccc(Cl)cc34)cc2)c1C` [Compound 176]: the IC50 is 390 nM.

Consider `CCCC(=O)c1cnn(-c2ccc(NC(=O)c3cn(CC(=O)N(C)C)c4ccc(N(C)C)cc34)cc2)c1C` [Compound 178], for which the IC50 was determined as 500 nM.

On to `CCCC(=O)c1cnn(-c2ccc(NC(=O)c3cn(CC(=O)N4CCN(C(C)(C)CO)CC4)c4ccc(Cl)cc34)cc2)c1C` [Compound 181], for which the IC50 stood at 180 nM.

Turning to `CCCC(=O)c1cnn(-c2ccc(NC(=O)c3cn(CC(=O)N4CCn5cnnc5C4)c4ccc(Cl)cc34)cc2)c1C` [Compound 182], the IC50 was determined as 270 nM.
